Measured values reported in patent US9902722B2, “Biaryl kinase inhibitors” (BRISTOL-MYERS SQUIBB COMPANY, priority 2014, dated 2018).

Target: GST-Xa-hAAK1 (Homo sapiens (Human), UniProt Q2M2I8)
Test: AAK1 Kinase Assay;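 note: each compound tested across an eleven-point concentration series, with IC50 obtained through non-linear regression fitting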
Format: biochemical
Conditions: bacterially expressed GST-Xa-hAAK1 3.5 nM; ATP 22 μM; peptide substrate 1.5 μM; 3 hours at room temperature; Caliper LabChip 3000
Protocol: The assays were performed in U-bottom 384-well plates. […] The reactions were initiated by the combination of bacterially expressed, GST-Xa-hAAK1 with substrates and test compounds. The reactions were incubated at room temperature for 3 hours and terminated by adding 60 μl of 35 mM EDTA buffer to each sample. […] Compounds were dissolved at 10 mM in dimethylsulfoxide (DMSO) and evaluated at eleven concentrations. IC50 values were derived by non-linear regression analysis.

GST-Xa-hAAK1, sequence (Q2M2I8 whole entry): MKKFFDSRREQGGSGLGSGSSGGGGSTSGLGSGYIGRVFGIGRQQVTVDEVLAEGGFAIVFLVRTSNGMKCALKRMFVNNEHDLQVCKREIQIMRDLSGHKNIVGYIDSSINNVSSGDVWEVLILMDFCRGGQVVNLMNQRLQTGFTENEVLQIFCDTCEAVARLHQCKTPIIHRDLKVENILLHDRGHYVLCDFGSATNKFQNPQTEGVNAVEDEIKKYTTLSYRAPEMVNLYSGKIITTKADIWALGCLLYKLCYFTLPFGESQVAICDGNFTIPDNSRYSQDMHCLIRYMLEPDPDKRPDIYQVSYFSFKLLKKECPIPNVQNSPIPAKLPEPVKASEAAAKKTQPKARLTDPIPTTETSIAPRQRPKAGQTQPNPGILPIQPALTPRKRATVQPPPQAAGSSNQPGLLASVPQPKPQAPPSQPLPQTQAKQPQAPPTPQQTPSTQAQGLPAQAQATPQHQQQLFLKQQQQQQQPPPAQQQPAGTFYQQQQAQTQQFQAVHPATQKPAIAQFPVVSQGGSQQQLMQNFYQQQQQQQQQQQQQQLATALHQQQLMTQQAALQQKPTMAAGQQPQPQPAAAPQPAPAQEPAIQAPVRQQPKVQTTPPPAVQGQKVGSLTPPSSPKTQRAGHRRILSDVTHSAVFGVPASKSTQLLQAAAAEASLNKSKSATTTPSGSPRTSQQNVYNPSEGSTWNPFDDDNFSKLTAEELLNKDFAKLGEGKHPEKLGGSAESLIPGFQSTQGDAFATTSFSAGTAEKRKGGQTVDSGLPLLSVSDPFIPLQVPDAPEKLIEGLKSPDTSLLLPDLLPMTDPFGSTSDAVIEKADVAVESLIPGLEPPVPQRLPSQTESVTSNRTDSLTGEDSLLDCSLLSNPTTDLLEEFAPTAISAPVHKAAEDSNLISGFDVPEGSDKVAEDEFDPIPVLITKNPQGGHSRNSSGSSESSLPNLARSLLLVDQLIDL

CC(C)C[C@](C)(N)COc1ncc(-c2ccnc3cc(F)cc(F)c23)cc1C(F)(F)F [Example 218, (S)-1-((5-(5,7-difluoroquinolin-4-yl)-3-(trifluoromethyl)pyridin-2-yl)oxy)-2,4-dimethylpentan-2-amine]
IC50: 1 nM

CC(C)C[C@](C)(N)COc1ccc(-c2ccnc3ccccc23)cc1S(C)(=O)=O [Example 115, (S)-2,4-dimethyl-1-(2-(methylsulfonyl)-4-(quinolin-4-yl)phenoxy)pentan-2-amine]
IC50: 13 nM

CC(C)C[C@](C)(N)COc1cnc(-c2ccnc3ccc(OC(F)(F)F)cc23)cc1C(F)F [Example 134, (S)-1-((4-(difluoromethyl)-6-(6-(trifluoromethoxy)quinolin-4-yl)pyridin-3-yl)oxy)-2,4-dimethylpentan-2-amine]
IC50: 4.4 nM

Cc1nc(-c2ccnc(N)c2F)ccc1OC[C@@](C)(N)CC(C)C [Example 153, (S)-5-((2-amino-2,4-dimethylpentyl)oxy)-3′-fluoro-6-methyl-[2,4′-bipyridin]-2′-amine]
IC50: 1.9 nM

COC(=O)Nc1cc(-c2ccc(OC[C@@H](N)CC(C)C)c(F)c2)ccn1 [Example 13, (S)-methyl (4-(4-((2-amino-4-methylpentyl)oxy)-3-fluorophenyl)pyridin-2-yl)carbamate]
IC50: 1.1 nM

CC(C)C[C@](C)(N)COc1ncc(-c2ccnc3cc(F)cc(F)c23)cc1C#N [Example 77, (S)-2-((2-amino-2,4-dimethylpentyl)oxy)-5-(5,7-difluoroquinolin-4-yl)nicotinonitrile]
IC50: 0.92 nM

COC(=O)Nc1cc(-c2ccc(OC[C@](C)(N)CC(C)C)c(C)n2)ccn1 [Example 173, (R)-methyl (5-((2-amino-2,4-dimethylpentyl)oxy)-6-methyl-[2,4′-bipyridin]-2′-yl)carbamate]
IC50: 42 nM

CC(C)C[C@](C)(N)COc1cnc(-c2ccnc(C(F)F)c2)cc1C(F)F [Example 124, (S)-1-((2′,4-bis(difluoromethyl)-[2,4′-bipyridin]-5-yl)oxy)-2,4-dimethylpentan-2-amine]
IC50: 1.2 nM

CC(C)C[C@](C)(N)COc1ccc(-c2ccnc3ccccc23)cc1C(F)(F)F [Example 69, (S)-2,4-dimethyl-1-(4-(quinolin-4-yl)-2-(trifluoromethyl)phenoxy)pentan-2-amine]
IC50: 0.76 nM

CC(C)C[C@](C)(N)COc1ccc(-c2ccncc2)cc1C(F)(F)F [Example 43, (S)-2,4-dimethyl-1-(4-(pyridin-4-yl)-2-(trifluoromethyl)phenoxy)pentan-2-amine]
IC50: 0.64 nM

CC(C)C[C@](C)(N)COc1ccc(-c2ccnc(Cl)c2)nc1C(F)F [Example 158, (S)-1-((2′-chloro-6-(difluoromethyl)-[2,4′-bipyridin]-5-yl)oxy)-2,4-dimethylpentan-2-amine]
IC50: 5.4 nM

COC(=O)Nc1cc(-c2cc(C(F)F)c(OC[C@@](C)(N)CC(C)C)cn2)ccn1 [Example 120, (S)-methyl (5-((2-amino-2,4-dimethylpentyl)oxy)-4-(difluoromethyl)-[2,4′-bipyridin]-2′-yl)carbamate]
IC50: 0.51 nM

Cc1cc(-c2cc(C(F)F)c(OC[C@@](C)(N)CC(C)C)cn2)ccn1 [Example 122, (S)-1-((4-(difluoromethyl)-2′-methyl-[2,4′-bipyridin]-5-yl)oxy)-2,4-dimethylpentan-2-amine]
IC50: 0.51 nM

Cc1cc(-c2ccc(OC[C@@H](N)CC(C)C)c(-c3ccno3)c2)ccn1 [Example 18, (S)-1-(2-(isoxazol-5-yl)-4-(2-methylpyridin-4-yl)phenoxy)-4-methylpentan-2-amine]
IC50: 5 nM

Cc1cc(-c2cnc(OC[C@@](C)(N)CC(C)C)c(F)c2)ccn1 [Example 97, (S)-1-((5-fluoro-2′-methyl-[3,4′-bipyridin]-6-yl)oxy)-2,4-dimethylpentan-2-amine]
IC50: 142 nM

CC(C)C[C@](C)(N)COc1ccc(-c2ncnc3ccccc23)cc1C(F)(F)F [Example 214, (S)-2,4-dimethyl-1-(4-(quinazolin-4-yl)-2-(trifluoromethyl)phenoxy)pentan-2-amine]
IC50: 0.86 nM

COC(=O)Nc1cc(-c2cc(Cl)c(OC[C@@](C)(N)CC(C)C)cn2)ccn1 [Example 237, (S)-methyl (5-((2-amino-2,4-dimethylpentyl)oxy)-4-chloro-[2,4′-bipyridin]-2′-yl)carbamate]
IC50: 1.4 nM
